Source: ChEMBL document CHEMBL1136951, “5-hydroxyindole-2-carboxylic acid amides: novel histamine-3 receptor inverse agonists for the treatment of obesity” (J Med Chem, 2009)

Key:
[1] = in vivo; conditions: Wistar, rat
[2] = in vivo; conditions: Sprague-Dawley, rat, brain, po, 10 mg/kg
[3] = species: Rattus norvegicus; assay: animal or person; conditions: Wistar, ip, read-out: INH
[4] = human, microsomes, 2 µM
[5] = rat, microsomes, 2 µM
[6] = physchem; conditions: octanol/water, pH 7.4
[7] = in vivo; conditions: Wistar, rat; remark: listed apart in the source
[8] = molecular target: hERG (KCNH2) (Homo sapiens, UniProt Q12809); assay: in vitro; conditions: CHO cells expressing human ERG
[9] = physchem
[10] = species: Rattus norvegicus; assay: animal or person; conditions: Wistar, ip, read-out: INH; remark: listed apart in the source
[11] = species: Rattus norvegicus; assay: animal or person; conditions: Wistar, ip, read-out: INH; remark: listed apart in the source
[12] = molecular target: Histamine H2 receptor (Homo sapiens) (UniProt P25021); conditions: CHO, 3 uM
[13] = molecular target: Histamine H3 receptor (Homo sapiens) (UniProt Q9Y5N1); conditions: CHO, 3 uM
[14] = in vivo; conditions: Sprague-Dawley, rat, brain, ip, 10 mg/kg
[15] = species: Rattus norvegicus; assay: animal or person; conditions: Wistar, po, read-out: INH
[16] = species: Rattus norvegicus; assay: animal or person; conditions: Wistar, po, read-out: INH; remark: listed apart in the source
[17] = in vivo; conditions: Wistar, rat; remark: listed apart in the source
[18] = physchem; remark: listed apart in the source
[19] = species: Rattus norvegicus; assay: animal or person; conditions: Wistar, ip, read-out: INH; remark: listed apart in the source
[20] = in vivo; conditions: Sprague-Dawley, rat, brain, ip, 30 mg/kg
[21] = in vivo; conditions: Sprague-Dawley, rat, brain/plasma, ip, 30 mg/kg
[22] = molecular target: Histamine H4 receptor (Homo sapiens) (UniProt Q9H3N8); conditions: CHO, 3 uM
[23] = molecular target: Histamine H1 receptor (Homo sapiens) (UniProt P35367); conditions: CHO, 3 uM
Histamine H1 receptor (Homo sapiens), sequence (P35367 whole entry): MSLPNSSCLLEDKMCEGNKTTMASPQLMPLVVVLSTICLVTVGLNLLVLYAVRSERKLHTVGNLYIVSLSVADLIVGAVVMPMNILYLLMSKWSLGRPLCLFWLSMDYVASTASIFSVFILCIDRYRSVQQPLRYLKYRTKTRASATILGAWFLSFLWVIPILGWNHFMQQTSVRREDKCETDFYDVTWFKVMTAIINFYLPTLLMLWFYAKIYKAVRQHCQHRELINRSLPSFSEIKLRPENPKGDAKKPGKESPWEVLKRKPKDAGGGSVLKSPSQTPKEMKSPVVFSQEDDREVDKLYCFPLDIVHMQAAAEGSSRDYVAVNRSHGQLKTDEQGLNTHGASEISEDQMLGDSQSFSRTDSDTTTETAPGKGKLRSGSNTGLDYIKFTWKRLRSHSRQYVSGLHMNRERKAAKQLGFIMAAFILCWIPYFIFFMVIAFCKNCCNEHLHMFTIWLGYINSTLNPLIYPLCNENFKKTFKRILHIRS

Histamine H2 receptor (Homo sapiens), sequence (P25021 whole entry): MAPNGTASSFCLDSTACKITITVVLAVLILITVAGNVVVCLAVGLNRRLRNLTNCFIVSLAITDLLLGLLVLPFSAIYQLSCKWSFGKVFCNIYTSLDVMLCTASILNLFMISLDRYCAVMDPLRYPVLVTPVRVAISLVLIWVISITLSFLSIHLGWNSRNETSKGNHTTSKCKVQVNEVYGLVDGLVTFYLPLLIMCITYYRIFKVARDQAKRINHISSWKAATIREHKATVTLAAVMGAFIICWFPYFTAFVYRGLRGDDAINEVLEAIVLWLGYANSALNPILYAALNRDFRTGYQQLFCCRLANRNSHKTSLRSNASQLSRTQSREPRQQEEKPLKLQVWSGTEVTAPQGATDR
hERG (KCNH2), sequence (Q12809 whole entry): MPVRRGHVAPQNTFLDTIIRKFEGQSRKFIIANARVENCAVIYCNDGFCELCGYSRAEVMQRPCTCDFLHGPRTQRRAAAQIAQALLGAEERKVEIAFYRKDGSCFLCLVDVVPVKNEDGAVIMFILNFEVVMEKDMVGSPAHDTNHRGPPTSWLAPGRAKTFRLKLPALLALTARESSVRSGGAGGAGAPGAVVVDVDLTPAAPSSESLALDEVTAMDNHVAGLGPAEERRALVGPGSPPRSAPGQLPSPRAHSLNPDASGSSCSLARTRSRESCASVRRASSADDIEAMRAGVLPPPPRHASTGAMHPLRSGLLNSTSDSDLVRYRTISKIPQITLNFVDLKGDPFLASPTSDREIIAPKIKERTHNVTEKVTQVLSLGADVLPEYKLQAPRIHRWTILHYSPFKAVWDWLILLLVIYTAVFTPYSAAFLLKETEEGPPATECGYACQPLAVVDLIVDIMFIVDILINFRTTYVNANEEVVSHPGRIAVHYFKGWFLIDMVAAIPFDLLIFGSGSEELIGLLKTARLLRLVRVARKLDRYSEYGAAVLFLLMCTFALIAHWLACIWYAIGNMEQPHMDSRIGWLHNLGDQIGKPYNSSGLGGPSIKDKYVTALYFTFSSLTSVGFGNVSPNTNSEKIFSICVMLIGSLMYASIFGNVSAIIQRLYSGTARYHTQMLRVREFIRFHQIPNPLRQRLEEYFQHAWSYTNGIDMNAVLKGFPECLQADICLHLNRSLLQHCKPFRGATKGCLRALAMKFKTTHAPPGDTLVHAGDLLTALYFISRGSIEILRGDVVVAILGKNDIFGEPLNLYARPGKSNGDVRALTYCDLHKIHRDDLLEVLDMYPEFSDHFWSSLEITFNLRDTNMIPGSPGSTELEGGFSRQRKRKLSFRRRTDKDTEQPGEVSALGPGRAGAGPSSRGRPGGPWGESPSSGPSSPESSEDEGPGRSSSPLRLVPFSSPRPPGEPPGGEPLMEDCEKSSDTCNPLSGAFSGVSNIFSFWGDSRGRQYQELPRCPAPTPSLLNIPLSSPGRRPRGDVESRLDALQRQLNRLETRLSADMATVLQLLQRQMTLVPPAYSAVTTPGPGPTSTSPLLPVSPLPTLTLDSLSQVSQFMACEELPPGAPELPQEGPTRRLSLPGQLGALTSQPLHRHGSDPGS
Histamine H3 receptor (Homo sapiens), sequence (Q9Y5N1 whole entry): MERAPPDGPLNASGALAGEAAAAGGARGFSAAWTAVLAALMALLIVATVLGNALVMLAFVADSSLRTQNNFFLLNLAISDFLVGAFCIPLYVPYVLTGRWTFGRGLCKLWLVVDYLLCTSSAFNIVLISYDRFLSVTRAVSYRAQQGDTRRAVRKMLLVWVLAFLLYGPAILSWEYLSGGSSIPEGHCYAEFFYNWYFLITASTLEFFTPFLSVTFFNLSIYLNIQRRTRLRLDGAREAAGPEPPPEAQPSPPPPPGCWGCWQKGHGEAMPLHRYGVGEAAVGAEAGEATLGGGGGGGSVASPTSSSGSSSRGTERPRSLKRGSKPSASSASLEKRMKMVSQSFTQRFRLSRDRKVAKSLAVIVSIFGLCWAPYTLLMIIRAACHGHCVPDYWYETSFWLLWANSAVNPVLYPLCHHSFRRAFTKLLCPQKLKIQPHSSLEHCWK
Histamine H4 receptor (Homo sapiens), sequence (Q9H3N8 whole entry): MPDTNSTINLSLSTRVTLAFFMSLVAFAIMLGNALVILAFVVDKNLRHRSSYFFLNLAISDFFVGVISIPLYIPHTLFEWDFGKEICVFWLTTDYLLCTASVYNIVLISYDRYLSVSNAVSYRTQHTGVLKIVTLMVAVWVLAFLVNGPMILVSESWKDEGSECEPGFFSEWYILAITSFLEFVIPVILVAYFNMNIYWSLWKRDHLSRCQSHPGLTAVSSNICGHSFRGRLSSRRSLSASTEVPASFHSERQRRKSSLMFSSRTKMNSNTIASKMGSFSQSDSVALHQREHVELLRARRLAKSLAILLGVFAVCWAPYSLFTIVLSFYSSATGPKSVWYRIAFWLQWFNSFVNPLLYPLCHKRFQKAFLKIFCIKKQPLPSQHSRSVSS

Row | Structure (SMILES) | clearance [4] [µL/min/mg] | clearance [5] [µL/min/mg] | logD [6] | pKa [9] | further results
1 | CC(C)N1CCC(Oc2ccc3c(c2)cc(C(=O)N2CCC(F)(F)CC2)n3C(C)C)CC1 | 4 | 12 | 1.67 | 9.9 | half-life [1]: 11 h; concentration at 2 h [2]: 1270 ng/g; inhibition in vivo at 3 mg/kg [3]: 80%; Vd [7]: 9.2 L/kg; inhibition at 10 µM [8]: 42%
2 | CC(C)N1CCC(Oc2ccc3[nH]c(C(=O)N4CCC(O)C4)cc3c2)CC1 (stereo not drawn) | 12 | 5 | -0.15 | 9.8 | inhibition in vivo at 30 mg/kg [10]: 83%
3 | CC(C)N1CCC(Oc2ccc3[nH]c(C(=O)N4CCCC(F)(F)C4)cc3c2)CC1 | < 1 | 17 | 1.23 | 10 | inhibition in vivo at 10 mg/kg [11]: 86%
4 | O=C(c1cc2cc(OC3CCN(C4COC4)CC3)ccc2n1CC(F)(F)F)N1CCOCC1 | 8 | 228 | 1.83 | 6.4 | –
5 | CC(C)N1CCC(Oc2ccc3c(c2)cc(C(=O)N2CCC(F)(F)CC2)n3-c2ccc(Cl)c(Cl)c2)CC1 | < 1 | 104 | 3.38 | – | inhibition [12]: > 30%
6 | O=C(c1cc2cc(OC3CCN(C4CC4)CC3)ccc2n1CC(F)(F)F)N1CCOCC1 | 11 | 143 | 2.79 | 7.5 | –
7 | CCN(c1ccc2[nH]c(C(=O)N3CCOCC3)cc2c1)C1CCN(C(C)C)CC1 | – | – | – | – | inhibition [13]: 19%
8 | CC(C)N1CCC(Oc2ccc3c(c2)cc(C(=O)N2CCC(F)(F)CC2)n3CC(F)(F)F)CC1 | 2 | 8 | 2.08 | 9.7 | half-life [1]: 1.8 h; inhibition in vivo at 3 mg/kg [3]: 49%; concentration at 2 h [14]: 435 ng/g
9 | CC(C)N1CCC(Oc2ccc3c(c2)cc(C(=O)N2CCC(F)(F)CC2)n3S(C)(=O)=O)CC1 | < 1 | 10 | 1.31 | 9.6 | half-life [1]: 6 h; Vd [7]: 9.2 L/kg; inhibition in vivo at 3 mg/kg [15]: 81%; inhibition at 10 µM [8]: 64%
10 | CC(C)N1CCC(Oc2cc3[nH]c(C(=O)N4CCOCC4)cc3cc2F)CC1 | 6 | 18 | – | 9.5 | –
11 | CC(C)N1CCC(Oc2ccc3[nH]c(C(=O)N4CCCCCC4)cc3c2)CC1 | 10 | 55 | 1.75 | 9.7 | inhibition in vivo at 10 mg/kg [11]: 76%
12 | CC(=O)n1c(C(=O)N2CCC(F)(F)CC2)cc2cc(OC3CCN(C(C)C)CC3)ccc21 | < 1 | – | – | – | –
13 | CC(C)(C)N1CCC(Oc2ccc3[nH]c(C(=O)N4CCOCC4)cc3c2)CC1 | 10 | 13 | 0.03 | 10 | –
14 | CC(C)N1CCC(Oc2ccc3c(c2)cc(C(=O)N2CCOCC2)n3CC(F)(F)F)CC1 | < 1 | 13 | 1.1 | 9.7 | inhibition in vivo at 10 mg/kg [11]: 87%; inhibition in vivo at 10 mg/kg [16]: 87%
15 | CC(C)N1CCC(Nc2ccc3[nH]c(C(=O)N4CCOCC4)cc3c2)CC1 | 5 | 9 | -0.7 | 9.9 | inhibition in vivo at 30 mg/kg [10]: 99%
16 | CC(C)N1CCC(Oc2ccc3cc(C(=O)N4CCOCC4)[nH]c3c2)CC1 | < 1 | 8 | 0.31 | 9.7 | inhibition in vivo at 10 mg/kg [11]: 60%
17 | CC(C)N1CCC(Oc2ccc3c(c2)cc(C(=O)N2CCC(F)(F)CC2)n3CC#N)CC1 | < 1 | 16 | 1.13 | 9.8 | –
18 | COC1CCN(C(=O)c2cc3cc(OC4CCN(C(C)C)CC4)ccc3[nH]2)CC1 | 5 | 20 | 0.59 | 9.9 | inhibition in vivo at 30 mg/kg [10]: 70%
19 | CC(C)N1CCC(Oc2ccc3c(c2)cc(C(=O)N2CCS(=O)(=O)CC2)n3CC(F)(F)F)CC1 | 1 | 4 | 0.35 | 9.6 | –
20 | O=C(c1cc2cc(OC3CCN(C4CCC4)CC3)ccc2n1CC(F)(F)F)N1CCOCC1 | 4 | 28 | 2.09 | 9.1 | –
21 | O=C(c1cc2cc(OC3CCN(C4CC4)CC3)ccc2[nH]1)N1CCOCC1 | 5 | 347 | 1.95 | 7.7 | –
22 | CCOC(=O)c1cc2cc(C(=O)O)ccc2[nH]1 | < 1 | 15 | 0.04 | – | –
23 | CC(C)N1CCC(Oc2ccc3[nH]c(C(=O)N4CCC(F)(F)CC4)cc3c2)CC1 | 5 | 9 | 1.2 | 9.7 | half-life [1]: 4 h; concentration at 2 h [2]: 1690 ng/g; bioavailability [17]: 100%; solubility [18]: > 540 µg/mL; inhibition at 10 µM [8]: 73%; inhibition in vivo at 1 mg/kg [19]: 58%
24 | CC(C)N1CCC(Oc2ccc3[nH]c(C(=O)N4CCOCC4)cc3c2)CC1 | < 1 | 12 | 0.09 | 10 | half-life [1]: 1 h; concentration at 2 h [20]: 2230 ng/g; inhibition at 10 µM [8]: 28%; inhibition in vivo at 30 mg/kg [10]: 91%; Kp [21]: 0.3
25 | O=C(c1cc2cc(OCCCN3CCCCC3)ccc2[nH]1)N1CCOCC1 | < 1 | 6 | 0.32 | 10 | inhibition [22]: 4%; inhibition [12]: 3%; inhibition [23]: 6%; inhibition in vivo at 10 mg/kg [11]: 66%
26 | O=C(c1ccc2c(c1)cc(C(=O)N1CCOCC1)n2CC(F)(F)F)N1CCN(C2CCC2)CC1 | 10 | 16 | 1.97 | 6.8 | Vd [7]: 1.5 L/kg; inhibition in vivo at 10 mg/kg [16]: 93%; inhibition at 10 µM [8]: 33%; Kp [21]: 0.3
27 | CC(C)N1CCC(Oc2ccc3c(c2)cc(C(=O)N2CCC(F)(F)CC2)n3S(=O)(=O)c2ccc(F)cc2)CC1 | < 1 | 20 | 3.04 | – | inhibition [12]: > 30%
28 | Cc1[nH]c2ccc(OC3CCN(C(C)C)CC3)cc2c1C(=O)N1CCOCC1 | < 1 | 15 | -0.12 | 9.8 | –
